Common to all, as to assay type: cell-based
For one assay, the system named is H358 cells (G12C). Kind of assay: Cell viability assay (CellTiter-Glo), H358 cells. The settings on record: Homo sapiens, NCI-H358, 72 h; H358 cells, 3 days incubation, CellTiter-Glo luminescence; read-out: Inhibition of Cancerous Cells IC50 H358 (G12C). An outline of the steps:
(§1)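 Cells were grown in medium with 2.5% FBS at 2,000 cells/well (96-well) or 500 cells/well (384-well); Lovo were plated at 4,000 or 1,000. Compound exposure lasted 3 days at 37° C., 5% CO2. Viability was measured as CellTiter-Glo luminescence.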
(In general: Cellular ATP, detected with luciferase, serves as a proxy for viable cell number.)

For a further assay, the system named is SW48 cells (wt). The experiment in a line: Cell viability assay (CellTiter-Glo), SW48 cells. The settings on record: Homo sapiens, 72 h; SW48 cells, 3 days incubation, CellTiter-Glo luminescence; read-out: Inhibition of Cancerous Cells IC50 SW48 (wt). An outline of the steps:
as §1

Another assay has as its system Lovo cells (G13D). Kind of assay: Cell viability assay (CellTiter-Glo), Lovo cells. The settings on record: Homo sapiens, 72 h; Lovo cells, 3 days incubation, CellTiter-Glo luminescence; read-out: Inhibition of Cancerous Cells IC50 Lovo (G13D). An outline of the steps: as §1
A further assay has as its system SW480 cells (G12V). Kind of assay: Cell viability assay (CellTiter-Glo), SW480 cells. The settings on record: Homo sapiens, 72 h; SW480 cells, 3 days incubation, CellTiter-Glo luminescence; read-out: Inhibition of Cancerous Cells IC50 SW480 (G12V). An outline of the steps:
as §1

In the next assay the test system is AsPC-1 cells (G12D). Kind of assay: Cell viability assay (CellTiter-Glo), AsPC-1 cells. The settings on record: Homo sapiens, ASPC1, 72 h, 3 days incubation, CellTiter-Glo luminescence, read-out: Inhibition of Cancerous Cells IC50 AsPC-1 (G12D). On the procedure: H358, H23, SW48, and AsPC-1 cells were cultured in RPMI 1640 media supplemented with 10% fetal bovine serum, streptomycin, and penicillin. Lovo and SW480 cells were cultured in DMEM media supplemented with 10% fetal bovine serum, streptomycin, and penicillin. The cell lines were plated in their respective medium supplemented with 2.5% fetal bovine serum, streptomycin, and penicillin. All cell lines were plated in white walled 96-well plates at 2,000 cells/well or 384-well plates at 500 cells/well, except Lovo, which were plated at 4,000 or 1,000 cells/well, respectively. The cells were incubated in DMSO (control) or a compound for 3 days at 37° C. under 5% CO2. A CELLTITER-GLO® reagent (100 μL) was then added to each well. After a 10 min incubation with shaking, luminescence was measured using an ENVISION® multimode plate reader.

What is called IC50 is the midpoint of a concentration-inhibition curve. In the case of `COc1cc2c(N[C@H](C)c3cccc(Br)c3)nc(C)nc2cc1OCCCCCCN1CCN(CC#Cc2cc3c(cc2F)C(=O)N(C2CCC(=O)NC2=O)C3)CC1` (stereo partly drawn) [Compound A43, 3-(5-(3-(4-(6-((4-(((R)-1-(3-Bromophenyl)ethyl)amino)-6-methoxy-2-methyl-quinazolin-7-yl)oxy)hexyl)piperazin-1-yl)prop-1-yn-1-yl)-6-fluoro-1-oxoisoindolin-2-yl)-piperidine-2,6-dione], the IC50 with H358 cells (G12C) came to 1300 nM; with SW48 cells (wt), 620 nM; with Lovo cells (G13D) it was 340 nM; in the assay on SW480 cells (G12V), 440 nM; in the assay with AsPC-1 cells (G12D), 830 nM.

`COc1cc2c(N[C@H](C)c3cccc(Br)c3)nc(C)nc2cc1OCCCCCCC(=O)N1CCC(c2cc(F)cc3c2CN(C2CCC(=O)NC2=O)C3=O)CC1` (stereo partly drawn) [Compound A59, 3-(4-(1-(7-((4-(((R)-1-(3-Bromophenyl)ethyl)amino)-6-methoxy-2-methyl-quinazolin-7-yl)oxy)heptanoyl)piperidin-4-yl)-6-fluoro-1-oxoisoindolin-2-yl)piperidine-2,6-dione]: the 50% inhibitory concentration (IC50) with H358 cells (G12C) is over 10000 nM; with SW48 cells (wt) it was 5300 nM; in the assay on Lovo cells (G13D), 4900 nM; in the assay with SW480 cells (G12V), 4700 nM; with AsPC-1 cells (G12D), over 10000 nM.

As to `COc1cc2c(N[C@H](C)c3cc(N)cc(C(F)(F)F)c3)nc(C)nc2cc1OCCCCCCCN1CCC(c2cc3c(cc2F)C(=O)N(C2CCC(=O)NC2=O)C3)CC1` (stereo partly drawn) [Compound A28, 3-(5-(1-(7-((4-(((R)-1-(3-Amino-5-(trifluoromethyl)phenyl)ethyl)amino)-6-methoxy-2-methylquinazolin-7-yl)oxy)heptyl)piperidin-4-yl)-6-fluoro-1-oxoisoindolin-2-yl)-piperidine-2,6-dione], the IC50 in the assay with H358 cells (G12C) amounted to 1200 nM; with SW48 cells (wt) it was 440 nM; in the assay with Lovo cells (G13D) it was 550 nM; in the assay with SW480 cells (G12V), 500 nM; in the assay with AsPC-1 cells (G12D), 1100 nM.

For the molecule `COc1cc2c(N[C@H](C)c3cccc(Br)c3)nc(C)nc2cc1OCCCN1CCC2(CC1)CCN(c1cc3c(cc1F)C(=O)N(C1CCC(=O)NC1=O)C3)CC2` (stereo partly drawn) [Compound A44, 3-(5-(9-(3-((4-(((R)-1-(3-Bromophenyl)ethyl)amino)-6-methoxy-2-methyl-quinazolin-7-yl)oxy)propyl)-3,9-diazaspiro[5.5]undecan-3-yl)-6-fluoro-1-oxoisoindolin-2-yl)piperidine-2,6-dione], the 50% inhibitory concentration (IC50) in the assay with H358 cells (G12C) worked out at 1200 nM; in the assay on SW48 cells (wt), 610 nM; with Lovo cells (G13D) it was 530 nM; with SW480 cells (G12V), 440 nM; in the assay with AsPC-1 cells (G12D) it was 980 nM.

For the molecule `COc1cc2c(N[C@H](C)c3cccc(Br)c3)nc(C)nc2cc1OCCCCCCCCCCCCNC(=O)[C@H](CC(C)C)NC(=O)[C@@H](O)[C@H](N)Cc1ccccc1` [Compound B9, (S)-2-((2S,3R)-3-Amino-2-hydroxy-4-phenylbutanamido)-N-(12-((4-(((R)-1-(3-bromophenyl)ethyl)amino)-6-methoxy-2-methylquinazolin-7-yl)oxy)dodecyl)-4-methylpentanamide], the IC50 is 1200 nM in the assay with H358 cells (G12C); 1400 nM with SW48 cells (wt); 730 nM in the assay with Lovo cells (G13D); 960 nM in the assay on SW480 cells (G12V); 2700 nM with AsPC-1 cells (G12D).

`COc1cc2c(N[C@H](C)c3cccc(Br)c3)nc(C)nc2cc1OCCCCCCCCNC(=O)[C@H](CC(C)C)NC(=O)[C@@H](O)[C@H](N)Cc1ccccc1` [Compound B7, (S)-2-((2S,3R)-3-Amino-2-hydroxy-4-phenylbutanamido)-N-(8-((4-(((R)-1-(3-bromophenyl)ethyl)amino)-6-methoxy-2-methylquinazolin-7-yl)oxy)octyl)-4-methylpentanamide]: the IC50 in the assay on H358 cells (G12C) worked out at 1300 nM; in the assay on SW48 cells (wt), 920 nM; in the assay with Lovo cells (G13D), 680 nM; in the assay with SW480 cells (G12V), 610 nM; with AsPC-1 cells (G12D), 1200 nM.

`CN[C@@H](C)C(=O)N[C@H](C(=O)N1CCC[C@H]1c1nc(C(=O)c2cccc(OCCCCCCCCOc3cc4nc(C)nc(N[C@H](C)c5cccc(Br)c5)c4cc3OC)c2)cs1)C1CCCCC1` [Compound B2, (S)—N—((S)-2-((S)-2-(4-(3-((8-((4-(((R)-1-(3-Bromophenyl)ethyl)amino)-6-methoxy-2-methylquinazolin-7-yl)oxy)octyl)oxy)benzoyl)thiazol-2-yl)pyrrolidin-1-yl)-1-cyclohexyl-2-oxoethyl)-2-(methylamino)propanamide]: the half-inhibitory concentration (IC50) is 980 nM with H358 cells (G12C); 980 nM in the assay with SW48 cells (wt); 480 nM in the assay with Lovo cells (G13D); 500 nM with SW480 cells (G12V); 1200 nM in the assay with AsPC-1 cells (G12D).

Regarding `COc1cc2c(N[C@H](C)c3cccc(Br)c3)nc(C)nc2cc1OCCCCCCCCCNc1cccc2nc(C)n(C3CCC(=O)NC3=O)c(=O)c12` (stereo partly drawn) [Compound A45, 3-(5-((9-((4-(((R)-1-(3-Bromophenyl)ethyl)amino)-6-methoxy-2-methyl-quinazolin-7-yl)oxy)nonyl)amino)-2-methyl-4-oxoquinazolin-3(4H)-yl)piperidine-2,6-dione], the IC50 in the assay with H358 cells (G12C) worked out at 2300 nM; in the assay with SW48 cells (wt) it was 2000 nM; with Lovo cells (G13D), 1200 nM; in the assay with SW480 cells (G12V), 900 nM; in the assay with AsPC-1 cells (G12D), 5200 nM.

As for `CN[C@@H](C)C(=O)N[C@H](C(=O)N1CCC[C@H]1c1nc(C(=O)c2cccc(OCCCCCCOc3cc4nc(C)nc(N[C@H](C)c5cccc(Br)c5)c4cc3OC)c2)cs1)C1CCCCC1` [Compound B1, (S)—N—((S)-2-((S)-2-(4-(3-((6-((4-(((R)-1-(3-bromophenyl)ethyl)amino)-6-methoxy-2-methylquinazolin-7-yl)oxy)hexyl)oxy)benzoyl)thiazol-2-yl)pyrrolidin-1-yl)-1-cyclohexyl-2-oxoethyl)-2-(methylamino)propanamide], the half-maximal inhibitory concentration (IC50) was 2400 nM in the assay on H358 cells (G12C); 1100 nM in the assay with SW48 cells (wt); 720 nM in the assay with Lovo cells (G13D); 980 nM with SW480 cells (G12V); 3000 nM with AsPC-1 cells (G12D).

For `COc1cc2c(N[C@@H](C)c3cc(N)cc(C(F)(F)F)c3)nc(C)nc2cc1OCCCCCCCN1CCC(c2cc3c(cc2F)C(=O)N(C2CCC(=O)NC2=O)C3)CC1` (stereo partly drawn) [Compound A68, 3-(5-(1-(7-((4-(((S)-1-(3-Amino-5-(trifluoromethyl)phenyl)ethyl)amino)-6-methoxy-2-methylquinazolin-7-yl)oxy)heptyl)piperidin-4-yl)-6-fluoro-1-oxoisoindolin-2-yl)piperidine-2,6-dione], the IC50 with H358 cells (G12C) stood at 690 nM; in the assay on SW48 cells (wt), 500 nM; in the assay with Lovo cells (G13D), 630 nM; in the assay with SW480 cells (G12V), 530 nM; in the assay on AsPC-1 cells (G12D), 1500 nM.

Take `CNCc1ccccc1-c1csc([C@H](C)Nc2nc(C)nc3cc(OCCCCCCCN4CCC(c5cc6c(cc5F)C(=O)N(C5CCC(=O)NC5=O)C6)CC4)c(OC)cc23)c1` (stereo partly drawn) [Compound A26, 3-(6-Fluoro-5-(1-(7-((6-methoxy-2-methyl-4-(((S)-1-(4-(2-((methylamino)-methyl)phenyl)thiophen-2-yl)ethyl)amino)quinazolin-7-yl)oxy)heptyl)piperidin-4-yl)-1-oxoisoindolin-2-yl)piperidine-2,6-dione]: the half-inhibitory concentration (IC50) with H358 cells (G12C) is 570 nM; in the assay on SW48 cells (wt) it was 420 nM; with Lovo cells (G13D), 360 nM; in the assay with SW480 cells (G12V), 400 nM.

For the molecule `COc1cc2c(N[C@H](C)c3cccc(Br)c3)nc(C)nc2cc1OCCCCCCCCN1CCC(c2cc(F)cc3c2CN(C2CCC(=O)NC2=O)C3=O)CC1` (stereo partly drawn) [Compound A58, 3-(4-(1-(8-((4-(((R)-1-(3-Bromophenyl)ethyl)amino)-6-methoxy-2-methyl-quinazolin-7-yl)oxy)octyl)piperidin-4-yl)-6-fluoro-1-oxoisoindolin-2-yl)piperidine-2,6-dione], the IC50 in the assay on H358 cells (G12C) amounted to 1200 nM; in the assay on SW48 cells (wt) it was 420 nM; in the assay on Lovo cells (G13D) it was 300 nM; in the assay on SW480 cells (G12V) it was 360 nM.

Turning to `COc1cc2c(N[C@H](C)c3cccc(Br)c3)nc(C)nc2cc1OCCCCCC(=O)NCc1scc2c1CN(C1CCC(=O)NC1=O)C2=O` (stereo partly drawn) [Compound A37, 6-((4-(((R)-1-(3-Bromophenyl)ethyl)amino)-6-methoxy-2-methylquinazolin-7-yl)oxy)-N-((5-(2,6-dioxopiperidin-3-yl)-4-oxo-5,6-dihydro-4H-thieno[3,4-c]pyrrol-1-yl)methyl)-hexanamide], the IC50 in the assay on H358 cells (G12C), in the assay with SW48 cells (wt), with Lovo cells (G13D) and with SW480 cells (G12V) was over 10000 nM each time.

The record behind these values is patent US20240025863A1, “SOS1 PROTEIN DEGRADERS, PHARMACEUTICAL COMPOSITIONS THEREOF, AND THEIR THERAPEUTIC APPLICATIONS” (BioTheryX, Inc., priority 2020, published 2024).
